Laboratory results from ChEMBL document CHEMBL1136776, “Aromatic reduced amide bond peptidomimetics as selective inhibitors of neuronal nitric oxide synthase” (J Med Chem, 2003).
pKi: −log10 of the molar value. Square brackets hold non-standard residues; d marks the D form. Peptide text beside a SMILES is read from it. dArg(NO2) = N=C(NCCC[C@@H](N)C(=O)O)N[N+](=O)[O-]

Assays:
[1] = molecular target: T1, Nitric oxide synthase 3 (Bos taurus, UniProt P29473)
T1 sequence (P29473 whole entry): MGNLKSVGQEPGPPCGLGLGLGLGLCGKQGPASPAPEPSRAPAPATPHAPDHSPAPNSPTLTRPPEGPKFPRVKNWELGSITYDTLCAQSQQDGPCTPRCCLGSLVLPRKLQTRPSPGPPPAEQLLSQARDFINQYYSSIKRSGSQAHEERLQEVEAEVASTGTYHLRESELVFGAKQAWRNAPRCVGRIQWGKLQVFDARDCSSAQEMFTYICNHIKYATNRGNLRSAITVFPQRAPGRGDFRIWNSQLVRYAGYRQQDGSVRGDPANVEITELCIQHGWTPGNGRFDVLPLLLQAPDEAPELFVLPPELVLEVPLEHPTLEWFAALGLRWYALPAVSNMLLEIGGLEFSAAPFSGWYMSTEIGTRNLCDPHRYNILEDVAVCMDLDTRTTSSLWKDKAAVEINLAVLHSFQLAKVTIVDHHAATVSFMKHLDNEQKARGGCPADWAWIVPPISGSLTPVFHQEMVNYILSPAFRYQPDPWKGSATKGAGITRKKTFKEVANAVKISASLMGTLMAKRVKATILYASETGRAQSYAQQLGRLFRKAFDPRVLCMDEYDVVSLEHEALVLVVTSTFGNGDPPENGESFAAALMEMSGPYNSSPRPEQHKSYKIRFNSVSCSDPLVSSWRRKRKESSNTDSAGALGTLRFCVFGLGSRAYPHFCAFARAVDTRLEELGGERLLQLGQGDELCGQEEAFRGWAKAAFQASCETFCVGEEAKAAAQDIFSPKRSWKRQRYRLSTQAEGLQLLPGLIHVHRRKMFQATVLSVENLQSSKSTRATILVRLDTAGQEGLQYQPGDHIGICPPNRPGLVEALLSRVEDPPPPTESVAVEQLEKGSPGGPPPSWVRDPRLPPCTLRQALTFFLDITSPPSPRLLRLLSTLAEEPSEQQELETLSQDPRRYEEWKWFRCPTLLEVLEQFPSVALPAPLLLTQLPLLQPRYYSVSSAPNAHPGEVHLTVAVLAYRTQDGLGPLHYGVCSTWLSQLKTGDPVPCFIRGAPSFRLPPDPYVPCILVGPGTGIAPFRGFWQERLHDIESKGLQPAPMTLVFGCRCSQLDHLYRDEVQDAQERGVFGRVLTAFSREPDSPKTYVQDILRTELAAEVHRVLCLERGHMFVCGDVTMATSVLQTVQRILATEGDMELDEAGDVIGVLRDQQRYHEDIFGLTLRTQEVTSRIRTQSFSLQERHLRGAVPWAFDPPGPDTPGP
Description: Inhibitory activity against endothelial nitric oxide synthase (eNOS)

[2] = Selectivity ratio of Ki value of eNOS to nNOS
[3] = Selectivity ratio of Ki value of iNOS to nNOS
[4] = molecular target: Nitric oxide synthase 1 (Rattus norvegicus, UniProt P29476)
Sequence of Nitric oxide synthase 1 (P29476 whole entry): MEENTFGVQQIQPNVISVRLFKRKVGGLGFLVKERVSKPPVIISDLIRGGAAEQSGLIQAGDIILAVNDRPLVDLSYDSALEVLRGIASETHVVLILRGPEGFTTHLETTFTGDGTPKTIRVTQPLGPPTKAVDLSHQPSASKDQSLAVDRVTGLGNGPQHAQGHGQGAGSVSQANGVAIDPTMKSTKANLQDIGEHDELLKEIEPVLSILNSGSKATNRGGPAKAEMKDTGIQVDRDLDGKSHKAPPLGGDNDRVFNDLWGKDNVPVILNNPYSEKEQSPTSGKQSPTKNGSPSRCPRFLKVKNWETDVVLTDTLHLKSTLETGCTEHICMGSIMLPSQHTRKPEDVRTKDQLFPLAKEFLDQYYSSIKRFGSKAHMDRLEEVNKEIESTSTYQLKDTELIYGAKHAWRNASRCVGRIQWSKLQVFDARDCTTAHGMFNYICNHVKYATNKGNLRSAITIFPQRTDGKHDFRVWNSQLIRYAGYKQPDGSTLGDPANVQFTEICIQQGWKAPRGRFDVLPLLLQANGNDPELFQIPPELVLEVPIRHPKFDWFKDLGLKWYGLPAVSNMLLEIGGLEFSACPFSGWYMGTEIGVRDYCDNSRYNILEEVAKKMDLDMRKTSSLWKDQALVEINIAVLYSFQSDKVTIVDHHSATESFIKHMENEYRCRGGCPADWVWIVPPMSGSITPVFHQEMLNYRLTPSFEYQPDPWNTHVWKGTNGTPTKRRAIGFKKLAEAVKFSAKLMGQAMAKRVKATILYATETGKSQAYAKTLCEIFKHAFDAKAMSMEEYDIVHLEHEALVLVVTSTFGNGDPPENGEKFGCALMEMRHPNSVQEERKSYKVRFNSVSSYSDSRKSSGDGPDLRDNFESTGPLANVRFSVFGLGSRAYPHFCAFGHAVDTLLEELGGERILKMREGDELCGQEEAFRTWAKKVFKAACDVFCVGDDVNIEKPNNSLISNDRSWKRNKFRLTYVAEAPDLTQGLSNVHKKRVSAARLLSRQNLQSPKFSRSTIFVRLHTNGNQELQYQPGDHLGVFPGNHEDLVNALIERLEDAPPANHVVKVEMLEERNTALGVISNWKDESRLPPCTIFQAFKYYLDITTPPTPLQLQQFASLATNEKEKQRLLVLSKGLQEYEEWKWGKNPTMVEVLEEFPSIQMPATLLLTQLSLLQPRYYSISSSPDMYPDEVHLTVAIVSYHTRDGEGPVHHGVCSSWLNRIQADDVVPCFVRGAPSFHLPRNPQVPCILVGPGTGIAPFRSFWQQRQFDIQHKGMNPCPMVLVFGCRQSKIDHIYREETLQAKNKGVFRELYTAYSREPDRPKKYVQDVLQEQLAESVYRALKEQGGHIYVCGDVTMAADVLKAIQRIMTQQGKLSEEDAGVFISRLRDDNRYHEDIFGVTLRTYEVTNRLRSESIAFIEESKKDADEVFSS
Description: Inhibitory activity against Neuronal Nitric Oxide Synthase (nNOS)

Compound	pKi [1]	Selectivity [2]	Selectivity [3]	pKi [4]
N=C(NCCC[C@H](N)CNCCc1ccncc1)N[N+](=O)[O-]	3.71			
N/C(=N\CCC[C@H](N)CNCCc1ccccc1N)N[N+](=O)[O-]		22.1	135	
NCCCC[C@@H](N)C(=O)N[C@H](CCC/N=C(/N)N[N+](=O)[O-])C(N)=O (H-[dK]-[dArg(NO2)]-NH2)				6.05
N/C(=N\CCC[C@H](N)CNCCc1cccc(N)c1)N[N+](=O)[O-]		35	122	
N/C(=N\CCC[C@H](N)CNc1ccc(N)cc1)N[N+](=O)[O-]		51	149	
NCc1ccccc1NC[C@@H](N)CCC/N=C(\N)N[N+](=O)[O-]		7.17	5.28	
N/C(=N\CCC[C@H](N)CNc1cccc(N)c1)N[N+](=O)[O-]		36	127	
COC(=O)[C@@H](CCCNC(=N)N[N+](=O)[O-])NC(=O)[C@H](N)Cc1ccccc1 (H-[dF]-[dArg(NO2)]-OMe)		2.5	1800	5.70
N=C(NCCC[C@H](N)CNCCc1ccccn1)N[N+](=O)[O-]	3.91			
N/C(=N\CCC[C@H](N)CNCc1cccnc1)N[N+](=O)[O-]		951	256	
NCc1ccc(NC[C@@H](N)CCC/N=C(\N)N[N+](=O)[O-])cc1		299	245	
N/C(=N\CCC[C@H](N)CNCCc1ccc(N)cc1)N[N+](=O)[O-]		230	458	
